Data: patent US6358885B1, “Substituted phenylheterocyclic herbicides” (Mississippi State University, priority 1992, dated 2002)

Experiments:
[1] = tested on: cheatgrass; assay: Test B preemergence/postemergence greenhouse plant response rating 0 to 10; type: in vivo, Bromus secalinus; conditions: for Plant response rating, Cheatgrass: 0 to 10 scale
Summary of the method: (§1)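 Planted seeds are treated preemergence with compound dissolved in a non-phytotoxic solvent, while postemergence applications go onto plants of two to eighteen cm. Plants stay in the greenhouse twelve to sixteen days and are then rated visually relative to controls.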

[2] = tested on: chickweed; assay: Test C preemergence/postemergence greenhouse plant response rating 0 to 100; type: in vivo, Stellaria media; conditions: for Plant response rating, Chickweed: 0 to 100 scale
Summary of the method: (§2)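 Compounds in non-phytotoxic solvent went onto sandy loam before emergence (seeded one day earlier) or onto plants at the one-to-four leaf stage. Duck salad was treated via flood water (~2.5 cm, maintained) over silt loam.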

[3] = tested on: rape; assay: as above; type: in vivo, Brassica napus; conditions: for Plant response rating, Rape: 0 to 100 scale
Summary of the method: as §2

[4] = tested on: rice; assay: Test C flood test plant response rating 0 to 100; type: in vivo, Oryza sativa; conditions: for Plant response rating Rice Japonica: flood test species listed under POSTEMERGENCE, 0 to 100 scale
Summary of the method: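 Compounds in non-phytotoxic solvent applied preemergence to sandy loam one day after planting, postemergence at the 1–4 leaf stage, or to ~2.5 cm floodwater over silt loam.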

[5] = tested on: morningglory; assay: Test C preemergence/postemergence greenhouse plant response rating 0 to 100; type: in vivo, Ipomoea hederacea; conditions: for Plant response rating, Morningglory: 0 to 100 scale
Summary of the method: as §2

[6] = tested on: soybean; assay: Test B preemergence/postemergence greenhouse plant response rating 0 to 10; type: in vivo, Glycine max; conditions: for Plant response rating, Soybean: 0 to 10 scale
Summary of the method: as §1

[7] = tested on: sorghum; assay: Test C preemergence/postemergence greenhouse plant response rating 0 to 100; type: in vivo, Sorghum bicolor; conditions: for Plant response rating, Sorghum: 0 to 100 scale
Summary of the method: as §2

[8] = tested on: soybean; assay: as above; type: in vivo, Glycine max; conditions: for Plant response rating, Soybean: 0 to 100 scale
Summary of the method: as §2

[9] = tested on: barley; assay: Test B preemergence/postemergence greenhouse plant response rating 0 to 10; type: in vivo, Hordeum vulgare; conditions: for Plant response rating, Barley: 0 to 10 scale
Summary of the method: as §1

[10] = tested on: giant foxtail; assay: Test C preemergence/postemergence greenhouse plant response rating 0 to 100; type: in vivo, Setaria faberii; conditions: for Plant response rating, Giant foxtail: 0 to 100 scale
Summary of the method: as §2

[11] = tested on: giant foxtail; assay: Test B preemergence/postemergence greenhouse plant response rating 0 to 10; type: in vivo, Setaria faberii; conditions: for Plant response rating, Giant foxtail: 0 to 10 scale
Summary of the method: as §1

[12] = tested on: blackgrass; assay: Test C preemergence/postemergence greenhouse plant response rating 0 to 100; type: in vivo, Alopecurus myosuroides; conditions: for Plant response rating, Blackgrass: 0 to 100 scale
Summary of the method: as §2

[13] = tested on: bedstraw; assay: Test B preemergence/postemergence greenhouse plant response rating 0 to 10; type: in vivo, Galium aparine; conditions: for Plant response rating, Bedstraw: 0 to 10 scale
Summary of the method: as §1

[14] = tested on: cocklebur; assay: as above; type: in vivo, Xanthium pensylvanicum; conditions: for Plant response rating, Cocklebur: 0 to 10 scale
Summary of the method: as §1

[15] = tested on: velvetleaf; assay: as above; type: in vivo, Abutilon theophrasti; conditions: for Plant response rating, Velvetleaf: 0 to 10 scale
Summary of the method: as §1

[16] = tested on: lambsquarters; assay: as above; type: in vivo, Chenopodium album; conditions: for Plant response rating, Lambsquarter: 0 to 10 scale
Summary of the method: as §1

[17] = tested on: barley; assay: Test C preemergence/postemergence greenhouse plant response rating 0 to 100; type: in vivo, Hordeum vulgare; conditions: for Plant response rating Barley Igri: 0 to 100 scale
Summary of the method: as §2

[18] = tested on: morningglory; assay: Test B preemergence/postemergence greenhouse plant response rating 0 to 10; type: in vivo, Ipomoea hederacea; conditions: for Plant response rating, Morningglory: 0 to 10 scale
Summary of the method: as §1

C#CC(C)Oc1cc(-c2nn3c(c2Br)CCCC3)c(F)cc1Cl (stereo not drawn) [Compound 66]
Plant response rating, Cheatgrass ([1]; POSTEMERGENCE, Rate 50 g/ha): 3
Plant response rating, Cheatgrass ([1]; PREEMERGENCE, Rate 50 g/ha): 1
Plant response rating (0 to 10 scale), Cheatgrass ([1]; PREEMERGENCE, Rate 200 g/ha): 6
Plant response rating, Cheatgrass ([1]; Rate 200 g/ha, POSTEMERGENCE): 6
Plant response rating, Chickweed ([2]; POSTEMERGENCE, 62 g/ha): 95
Plant response rating, Chickweed ([2]; POSTEMERGENCE, 250 g/ha): 100
Plant response rating (0 to 100), Chickweed ([2]; POSTEMERGENCE, Rate 4 g/ha): 30
Plant response rating, Chickweed ([2]; PREEMERGENCE, 62 g/ha): 50
Plant response rating, Chickweed ([2]; PREEMERGENCE, 250 g/ha): 80
Plant response rating (0 to 100), Chickweed ([2]; PREEMERGENCE, Rate 4 g/ha): 0
Plant response rating (0 to 100), Chickweed ([2]; Rate 16 g/ha, POSTEMERGENCE): 70
Plant response rating (0 to 100), Chickweed ([2]; Rate 16 g/ha, PREEMERGENCE): 0
Plant response rating, Rape ([3]; POSTEMERGENCE, 62 g/ha): 100
Plant response rating, Rape ([3]; POSTEMERGENCE, 250 g/ha): 100
Plant response rating (0 to 100), Rape ([3]; POSTEMERGENCE, Rate 4 g/ha): 40
Plant response rating, Rape ([3]; PREEMERGENCE, 62 g/ha): 20
Plant response rating, Rape ([3]; PREEMERGENCE, 250 g/ha): 30
Plant response rating (0 to 100), Rape ([3]; PREEMERGENCE, Rate 4 g/ha): 0
Plant response rating (0 to 100), Rape ([3]; Rate 16 g/ha, POSTEMERGENCE): 60
Plant response rating (0 to 100), Rape ([3]; Rate 16 g/ha, PREEMERGENCE): 0
Plant response rating (0 to 100), Rice Japonica ([4]; POSTEMERGENCE section, flood test, Rate 4 g/ha): 0
Plant response rating (0 to 100), Rice Japonica ([4]; Rate 16 g/ha, under POSTEMERGENCE head (flood test species)): 0
Plant response rating Rice Japonica ([4]; 62 g/ha): 10
Plant response rating Rice Japonica ([4]; 250 g/ha): 25
Plant response rating, Morningglory ([5]; POSTEMERGENCE, 62 g/ha): 85
Plant response rating, Morningglory ([5]; POSTEMERGENCE, 250 g/ha): 100
Plant response rating (0 to 100), Morningglory ([5]; POSTEMERGENCE, Rate 4 g/ha): 50
Plant response rating, Morningglory ([5]; PREEMERGENCE, 62 g/ha): 10
Plant response rating, Morningglory ([5]; PREEMERGENCE, 250 g/ha): 60
Plant response rating (0 to 100), Morningglory ([5]; PREEMERGENCE, Rate 4 g/ha): 0
Plant response rating (0 to 100), Morningglory ([5]; Rate 16 g/ha, POSTEMERGENCE): 50
Plant response rating (0 to 100), Morningglory ([5]; Rate 16 g/ha, PREEMERGENCE): 0
Plant response rating, Soybean ([6]; POSTEMERGENCE, Rate 50 g/ha): 6
Plant response rating, Soybean ([6]; PREEMERGENCE, Rate 50 g/ha): 0
Plant response rating (0 to 10 scale), Soybean ([6]; PREEMERGENCE, Rate 200 g/ha): 0
Plant response rating, Soybean ([6]; Rate 200 g/ha, POSTEMERGENCE): 8
Plant response rating, Sorghum ([7]; POSTEMERGENCE, 62 g/ha): 50
Plant response rating, Sorghum ([7]; POSTEMERGENCE, 250 g/ha): 60
Plant response rating (0 to 100), Sorghum ([7]; POSTEMERGENCE, Rate 4 g/ha): 30
Plant response rating, Sorghum ([7]; PREEMERGENCE, 250 g/ha): 30
Plant response rating (0 to 100), Sorghum ([7]; PREEMERGENCE, Rate 4 g/ha): 0
Plant response rating (0 to 100), Sorghum ([7]; Rate 16 g/ha, POSTEMERGENCE): 40
Plant response rating (0 to 100), Sorghum ([7]; Rate 16 g/ha, PREEMERGENCE): 0
Plant response rating, Soybean ([8]; POSTEMERGENCE, 62 g/ha): 60
Plant response rating, Soybean ([8]; POSTEMERGENCE, 250 g/ha): 70
Plant response rating (0 to 100), Soybean ([8]; POSTEMERGENCE, Rate 4 g/ha): 20
Plant response rating, Soybean ([8]; PREEMERGENCE, 250 g/ha): 20
Plant response rating (0 to 100), Soybean ([8]; PREEMERGENCE, Rate 4 g/ha): 0
Plant response rating (0 to 100), Soybean ([8]; Rate 16 g/ha, POSTEMERGENCE): 50
Plant response rating (0 to 100), Soybean ([8]; Rate 16 g/ha, PREEMERGENCE): 0
Plant response rating, Barley ([9]; POSTEMERGENCE, Rate 50 g/ha): 5
Plant response rating, Barley ([9]; PREEMERGENCE, Rate 50 g/ha): 0
Plant response rating (0 to 10 scale), Barley ([9]; PREEMERGENCE, Rate 200 g/ha): 2
Plant response rating, Barley ([9]; Rate 200 g/ha, POSTEMERGENCE): 6
Plant response rating, Giant foxtail ([10]; POSTEMERGENCE, 62 g/ha): 70
Plant response rating, Giant foxtail ([10]; POSTEMERGENCE, 250 g/ha): 90
Plant response rating (0 to 100), Giant foxtail ([10]; POSTEMERGENCE, Rate 4 g/ha): 30
Plant response rating, Giant foxtail ([10]; PREEMERGENCE, 62 g/ha): 20
Plant response rating, Giant foxtail ([10]; PREEMERGENCE, 250 g/ha): 100
Plant response rating (0 to 100), Giant foxtail ([10]; PREEMERGENCE, Rate 4 g/ha): 0
Plant response rating (0 to 100), Giant foxtail ([10]; Rate 16 g/ha, POSTEMERGENCE): 50
Plant response rating (0 to 100), Giant foxtail ([10]; Rate 16 g/ha, PREEMERGENCE): 0
Plant response rating, Giant foxtail ([11]; POSTEMERGENCE, Rate 50 g/ha): 7
Plant response rating, Giant foxtail ([11]; PREEMERGENCE, Rate 50 g/ha): 0
Plant response rating (0 to 10 scale), Giant foxtail ([11]; PREEMERGENCE, Rate 200 g/ha): 6
Plant response rating, Giant foxtail ([11]; Rate 200 g/ha, POSTEMERGENCE): 6
Plant response rating, Blackgrass ([12]; POSTEMERGENCE, 62 g/ha): 60
Plant response rating, Blackgrass ([12]; POSTEMERGENCE, 250 g/ha): 80
Plant response rating (0 to 100), Blackgrass ([12]; POSTEMERGENCE, Rate 4 g/ha): 20
Plant response rating, Blackgrass ([12]; PREEMERGENCE, 62 g/ha): 70
Plant response rating, Blackgrass ([12]; PREEMERGENCE, 250 g/ha): 70
Plant response rating (0 to 100), Blackgrass ([12]; PREEMERGENCE, Rate 4 g/ha): 0
Plant response rating (0 to 100), Blackgrass ([12]; Rate 16 g/ha, POSTEMERGENCE): 40
Plant response rating (0 to 100), Blackgrass ([12]; Rate 16 g/ha, PREEMERGENCE): 20
Plant response rating, Bedstraw ([13]; POSTEMERGENCE, Rate 50 g/ha): 10
Plant response rating, Bedstraw ([13]; PREEMERGENCE, Rate 50 g/ha): 9
Plant response rating (0 to 10 scale), Bedstraw ([13]; PREEMERGENCE, Rate 200 g/ha): 10
Plant response rating, Bedstraw ([13]; Rate 200 g/ha, POSTEMERGENCE): 10
Plant response rating, Cocklebur ([14]; POSTEMERGENCE, Rate 50 g/ha): 9
Plant response rating, Cocklebur ([14]; PREEMERGENCE, Rate 50 g/ha): 0
Plant response rating (0 to 10 scale), Cocklebur ([14]; PREEMERGENCE, Rate 200 g/ha): 0
Plant response rating, Cocklebur ([14]; Rate 200 g/ha, POSTEMERGENCE): 10
Plant response rating, Velvetleaf ([15]; POSTEMERGENCE, Rate 50 g/ha): 10
Plant response rating, Velvetleaf ([15]; PREEMERGENCE, Rate 50 g/ha): 6
Plant response rating (0 to 10 scale), Velvetleaf ([15]; PREEMERGENCE, Rate 200 g/ha): 9
Plant response rating, Velvetleaf ([15]; Rate 200 g/ha, POSTEMERGENCE): 10
Plant response rating, Lambsquarter ([16]; POSTEMERGENCE, Rate 50 g/ha): 10
Plant response rating, Lambsquarter ([16]; PREEMERGENCE, Rate 50 g/ha): 9
Plant response rating (0 to 10 scale), Lambsquarter ([16]; PREEMERGENCE, Rate 200 g/ha): 10
Plant response rating, Lambsquarter ([16]; Rate 200 g/ha, POSTEMERGENCE): 10
Plant response rating Barley Igri ([17]; POSTEMERGENCE, 62 g/ha): 50
Plant response rating Barley Igri ([17]; POSTEMERGENCE, 250 g/ha): 60
Plant response rating (0 to 100), Barley Igri ([17]; POSTEMERGENCE, Rate 4 g/ha): 30
Plant response rating Barley Igri ([17]; PREEMERGENCE, 62 g/ha): 0
Plant response rating Barley Igri ([17]; PREEMERGENCE, 250 g/ha): 20
Plant response rating (0 to 100), Barley Igri ([17]; PREEMERGENCE, Rate 4 g/ha): 0
Plant response rating (0 to 100), Barley Igri ([17]; Rate 16 g/ha, POSTEMERGENCE): 30
Plant response rating (0 to 100), Barley Igri ([17]; Rate 16 g/ha, PREEMERGENCE): 0
Plant response rating, Morningglory ([18]; POSTEMERGENCE, Rate 50 g/ha): 10
Plant response rating, Morningglory ([18]; PREEMERGENCE, Rate 50 g/ha): 0
Plant response rating (0 to 10 scale), Morningglory ([18]; PREEMERGENCE, Rate 200 g/ha): 2
Plant response rating, Morningglory ([18]; Rate 200 g/ha, POSTEMERGENCE): 10
